# Measurements reported in paper PMC3572853 (ACS medicinal chemistry letters, 2012).
# Columns and labels:
# [1] = biological target: PADs 1–4; test: kinact/KI determination with purified enzyme, all PADs tested; assay type: biochemical; settings: for kinact/KI: for all of the PADs tested (PADs 1–4)
# [2] = maximum tolerable dose; assay type: in vivo; settings: mice, per os
# [3] = tested on: MDA-MB-231 cells; test: cell viability and cell number in MDA-MB-231 cells; assay type: cell-based; settings: MDA-MB-231 cells, 100, 200 and 400 µM, 96 h after administration
# [4] = tested on: Ki-67; test: Ki-67 levels in MDA-MB-231 cells
# [5] = tested on: caspase 3 activity; test: caspase 3 activity in MDA-MB-231 cells; settings: MDA-MB-231 cells, 100, 200 and 400 µM, 96 h
# [6] = biological target: T1, PAD1 (Homo sapiens, UniProt Q9ULC6); test: kinact/KI determination with purified enzyme, PAD1; assay type: biochemical
# T1 sequence (Q9ULC6 1-663): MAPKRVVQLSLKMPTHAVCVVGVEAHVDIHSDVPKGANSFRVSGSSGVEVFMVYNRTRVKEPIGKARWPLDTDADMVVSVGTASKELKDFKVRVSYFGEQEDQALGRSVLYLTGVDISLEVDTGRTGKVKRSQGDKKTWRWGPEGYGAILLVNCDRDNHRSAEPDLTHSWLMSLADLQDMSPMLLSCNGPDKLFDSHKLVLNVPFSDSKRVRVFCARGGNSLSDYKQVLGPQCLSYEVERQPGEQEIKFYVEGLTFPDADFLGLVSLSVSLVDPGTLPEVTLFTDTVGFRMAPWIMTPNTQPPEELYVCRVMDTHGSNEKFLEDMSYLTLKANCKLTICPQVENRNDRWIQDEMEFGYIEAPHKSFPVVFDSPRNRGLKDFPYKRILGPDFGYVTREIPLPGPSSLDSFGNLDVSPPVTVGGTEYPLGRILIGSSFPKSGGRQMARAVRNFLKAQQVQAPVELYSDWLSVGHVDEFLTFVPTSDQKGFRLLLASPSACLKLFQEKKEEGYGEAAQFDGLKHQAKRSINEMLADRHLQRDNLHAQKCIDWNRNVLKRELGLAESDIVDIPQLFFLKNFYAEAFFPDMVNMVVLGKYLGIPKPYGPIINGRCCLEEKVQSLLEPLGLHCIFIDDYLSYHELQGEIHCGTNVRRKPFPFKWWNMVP
# [7] = pharmacokinetics in mice, IV and IP injection; assay type: in vivo; settings: 10 mg/kg
# [8] = tested on: collagen induced arthritis (CIA) model; settings: cited from earlier work
# [9] = tested on: mouse model of ulcerative colitis; settings: cited from earlier work
# [10] = mice, 100 mg/kg daily by i.p. for up to 56 days; cited from earlier work
Compound,kinact/KI [1] [M⁻¹ s⁻¹],cell number [3],cell viability [3],Ki-67 levels [4],caspase 3 activity [5],other results
N=C(CCl)NCCC[C@@H](NC(=O)c1ccccc1)C(N)=O [D-Cl-amidine],–,significantly decreased cell number at a concentration of 400 µM,significantly decreasing cell viability at concentrations of 200 and 400 µM,no significant effect on Ki-67 levels,significant increase in activity at a concentration of 400 µM,body weight change ([2]; varying doses up to 150 mg/kg): maintained healthy weight gains
N=C(CF)NCCC[C@@H](NC(=O)c1ccccc1)C(N)=O [D-F-amidine],–,–,–,–,–,kinact/KI [6]: 20.3 M⁻¹ s⁻¹
N=C(CF)NCCC[C@@H](NC(=O)c1ccccc1C(=O)O)C(N)=O [D-o-F-amidine],–,only a small decrease in cell number at a concentration of 400 µM,no effect on cell viability,–,did not result in an increase in caspase 3 activity,body weight change ([2]; varying doses up to 150 mg/kg): maintained healthy weight gains
"N=C(CCl)NCCC[C@H](NC(=O)c1ccccc1)C(N)=O [L-Cl-amidine, N-α-Benzoyl-N5-(2-Chloro-1-Iminoethyl)-l-Ornithine Amide]",–,significantly decreased cell number at a concentration of 400 µM,significantly decreasing cell viability at concentrations of 200 and 400 µM,no significant effect on Ki-67 levels,significant increase in activity at a concentration of 400 µM,"body weight change ([2]; 100 mg/kg (group 5), 4 days (96 h)): significant weight loss; body weight change ([2]; 150 mg/kg (group 6), 4 days (96 h)): significant weight loss; observable toxicity ([2]; group 6 (150 mg/kg)): notably shaking, anxious, hunching and breathing heavily from 1 to 4 h after treatment; time to complete degradation ([7]; IP): ≤ 4 h; time to complete degradation ([7]; IV): ≤ 2 h; disease severity [8]: reduces disease severity; disease severity [9]: reduces disease severity; signs of toxicity [10]: no observable signs of toxicity"
N=C(CCl)NCCCC(NC(=O)c1ccccc1)C(=O)O [L-Cl-amidine-OH],–,–,–,–,–,PAD inhibition in words ([1]; PADs 1–4): poor PAD inhibitor
CC(=O)N[C@H]1[C@@H](O[C@@H]2O[C@H](CC(O)[C@H]3O[C@@H](n4ccc(=O)[nH]c4=O)[C@H](O)[C@@H]3O)[C@H](O)[C@H](O)[C@H]2NC(=O)/C=C/CC(C)C)O[C@H](CO)[C@@H](N)[C@@H]1O (stereo partly shown) [tunicamycin],–,–,–,a decrease in Ki-67 levels,–,–

# The next lines start with results.
kinact/KI [1] [M⁻¹ s⁻¹],Compound,cell number [3],cell viability [3],Ki-67 levels [4],caspase 3 activity [5],other results
< 2.5,N=C(CCl)NCC[C@@H](NC(=O)c1ccccc1)C(N)=O [D-Cl2-amidine],–,–,–,–,–
< 2.5,N=C(CCl)NCCCC[C@@H](NC(=O)c1ccccc1)C(N)=O [D-Cl4-amidine],–,–,–,–,–
< 3.83,N=C(CCl)NCCC[C@@H](NC(=O)c1ccccc1)C(=O)NCC(=O)O [D-Cl-amidine-Gly],–,–,–,–,–
< 3.83,N=C(CCl)NCCC[C@@H](NC(=O)c1ccccc1)C(=O)O [D-Cl-amidine-OH],–,–,–,–,–
